Results on 14 compounds are retold here after PubChem BioAssay (NCI).

Each structure is given as a SMILES string. Converted amounts (≈) assume the structure as drawn.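 Cells were grown in 96-well plates and exposed to each compound for 48 hours at five concentrations; endpoints were interpolated linearly between bracketing concentrations, or set to the highest concentration if not reached. GI50 marks 50% less growth. TGI marks complete inhibition of growth.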

Some test systems named below: BT-549 breast; OVCAR-8 ovarian; HCT-15 colon; HL-60(TB) leukemia; 786-0 renal; SR leukemia; SN12C renal; CCRF-CEM leukemia; ACHN renal.
Common to all, as to assay: DTP human tumour cell line panel, 48 h

In general, TGI refers to the concentration giving total growth inhibition. Low values mean greater sensitivity of the cells, high ones lower sensitivity of the cells. For the compound `COc1ccc(-n2c3c(c4cc(O)ccc42)Cc2ccccc2C3=O)cc1`, the TGI with BT-549 breast, with OVCAR-8 ovarian, in the test on HCT-15 colon, in the test on HL-60(TB) leukemia, in the test with 786-0 renal and with SR leukemia was over 100 µM throughout. In addition, the TGI was over 100 µM with SN12C renal and 27.3 µM with CCRF-CEM leukemia.
Broadly, the GI50 is the concentration giving 50% growth inhibition. Regarding `CC1C(=O)c2cc3c(cc2CCN(C)Cc2c1ccc1c2OCO1)OCO3` (stereo not drawn), the GI50 with BT-549 breast was 59 µg/mL (≈ 161 µM); in the test with ACHN renal, over 75 µg/mL; with OVCAR-8 ovarian, over 75 µg/mL; with HCT-15 colon, over 75 µg/mL; in the test with HL-60(TB) leukemia, 21.2 µg/mL; with SR leukemia, 13.3 µg/mL. In addition, the GI50 in the test with SN12C renal was over 75 µg/mL; in the test with CCRF-CEM leukemia, 22 µg/mL. The concentration for total growth inhibition (TGI) is over 75 µg/mL in the test with BT-549 breast; over 75 µg/mL with ACHN renal; over 75 µg/mL in the test on OVCAR-8 ovarian; over 75 µg/mL in the test on HCT-15 colon; over 75 µg/mL in the test on HL-60(TB) leukemia; 40.9 µg/mL in the test with SR leukemia. In addition, the TGI in the test with SN12C renal and with CCRF-CEM leukemia was over 75 µg/mL throughout.
In the case of `O=C(O)C1CCCCN1C(=O)Cc1c[nH]c2ccccc12` (stereo not drawn), the TGI with BT-549 breast, in the test on ACHN renal, in the test on OVCAR-8 ovarian, with HCT-15 colon, in the test with HL-60(TB) leukemia and in the test with 786-0 renal was over 100 µM each time. Besides, the TGI in the test with SN12C renal and in the test on CCRF-CEM leukemia was over 100 µM throughout.
Turning to `Cc1oc(N)c(S(=O)(=O)c2cc3ccccc3n(O)c2=N)c1C`, the TGI with BT-549 breast, in the test with ACHN renal, in the test with OVCAR-8 ovarian, in the test on HCT-15 colon, in the test with 786-0 renal and with SN12C renal was over 100 µM each time.
For the compound `CCOC(=O)c1c(-c2cccc(Cl)c2)c(C(=O)OC)c(C)c2sc(C=O)nc12`, the concentration for total growth inhibition (TGI) in the test with BT-549 breast is 33.7 µM; in the test on ACHN renal, 31.4 µM; with OVCAR-8 ovarian, 41.9 µM; in the test with HCT-15 colon it was 36.9 µM; in the test with HL-60(TB) leukemia it was 44.9 µM; with SN12C renal it was 30.8 µM. This compound also came in with a TGI in the test with CCRF-CEM leukemia of 37 µM.
For `O=C(/C=C1\N=C(c2ccccc2)N(c2nc3c(Cl)cc(Cl)cc3s2)C1=O)/C=C/c1ccccc1`, the TGI in the test with BT-549 breast, in the test with ACHN renal, in the test on OVCAR-8 ovarian, with HCT-15 colon, with HL-60(TB) leukemia and with 786-0 renal was over 100 µM in each case. The TGI with SN12C renal and in the test on CCRF-CEM leukemia was over 100 µM throughout.
In the case of `COC(=O)C1CC23C4=C(CCC41)CCC1CN4CC(C)C(CC(OC(C)=O)C12COC(C)=O)C43O` (stereo not drawn), the TGI in the test with BT-549 breast, in the test on ACHN renal, in the test on OVCAR-8 ovarian, with HCT-15 colon, with HL-60(TB) leukemia and in the test on 786-0 renal was over 100 µM in each case. Besides, the TGI with SN12C renal and in the test on CCRF-CEM leukemia was over 100 µM throughout.
As to `C[N+]1(CCC(=O)c2ccccc2)CCC2CCC(C2)C1` (stereo not drawn), the total growth inhibition concentration (TGI) in the test on BT-549 breast, in the test on ACHN renal, in the test on OVCAR-8 ovarian, in the test with HCT-15 colon, with HL-60(TB) leukemia and in the test on 786-0 renal was over 100 µM throughout. The TGI in the test with SR leukemia, in the test with SN12C renal and in the test with CCRF-CEM leukemia was over 100 µM in each case.
As to `CN(C)C(=O)OC1=CC2CCC(C1)N2C` (stereo not drawn), the TGI in the test on BT-549 breast, in the test on ACHN renal, in the test with OVCAR-8 ovarian, in the test on HCT-15 colon, in the test on 786-0 renal and with SR leukemia was over 100 µM throughout. Further, the TGI with SN12C renal and with CCRF-CEM leukemia was over 100 µM in each case.
For `O=C1/C(=C/c2[nH]ncc2-c2ccc(Cl)cc2)C(=O)N(c2ccccc2)C1c1ccccc1` (stereo not drawn), the TGI in the test with BT-549 breast is 43.7 µM; in the test on ACHN renal it was 85.2 µM; with HCT-15 colon it was 36.9 µM; with HL-60(TB) leukemia, 37 µM; in the test on 786-0 renal, 44.7 µM; in the test with SR leukemia, 30 µM. Also, the results for the TGI with SN12C renal and in the test on CCRF-CEM leukemia were 85.7 µM and 53.7 µM, respectively.
Regarding `Cc1n[n+]([O-])c(C)cc1[N+](=O)[O-]`, the total growth inhibition concentration (TGI) with BT-549 breast was 51.5 µM; with ACHN renal, 30.2 µM; in the test with OVCAR-8 ovarian it was 31.6 µM; in the test on HCT-15 colon, 29.3 µM; in the test with 786-0 renal, over 100 µM; in the test on SN12C renal it was 28.1 µM. Further, in the test on CCRF-CEM leukemia, the TGI was 9.32 µM.
With `Cc1ccc2nc(-c3ccc(NC(=O)c4ccc(N)cc4)c(S(=O)(=O)O)c3)sc2c1`, the TGI in the test on BT-549 breast, with ACHN renal, with OVCAR-8 ovarian, in the test with HCT-15 colon, in the test on HL-60(TB) leukemia and in the test with 786-0 renal was over 100 µM each time. The TGI in the test on SN12C renal and in the test on CCRF-CEM leukemia was over 100 µM throughout.
Take `COC(=O)c1cc(NC(=O)c2cc(NC(=O)Cc3c[nH]c4ccccc34)cn2C)cn1C`: the TGI with BT-549 breast was over 100 µM; with ACHN renal, over 100 µM; in the test on OVCAR-8 ovarian, over 100 µM; in the test with HCT-15 colon, over 100 µM; with HL-60(TB) leukemia it was 95.4 µM; in the test with 786-0 renal, over 100 µM. The concentration for total growth inhibition (TGI) with SN12C renal and in the test on CCRF-CEM leukemia was over 100 µM throughout.
Regarding `O=C(Cc1csc2nc(-c3ccc(Cl)cc3)cn12)N/N=C/c1ccccc1O`, the GI50 with ACHN renal was 1.77 µM; in the test on OVCAR-8 ovarian it was 3.01 µM; with HCT-15 colon, 0.468 µM; in the test with HL-60(TB) leukemia, 1.66 µM; in the test on SR leukemia, 0.603 µM; in the test on SN12C renal it was 11 µM. Besides, the GI50 with CCRF-CEM leukemia was 0.736 µM. In addition, the TGI is over 100 µM in the test with ACHN renal; 78.9 µM in the test on OVCAR-8 ovarian; over 100 µM in the test with HCT-15 colon; 8.51 µM in the test on HL-60(TB) leukemia; over 100 µM in the test on SR leukemia; over 100 µM with SN12C renal. The TGI with CCRF-CEM leukemia was over 100 µM.
